Patent publication US20230085307A1, “PYRIDAZINONE COMPOUND AND HERBICIDE” (NISSAN CHEMICAL CORPORATION, priority 2019, published 2023)

Tested on: velvetleaf
Experiment: Test Example 4: herbicidal effect by soil treatment (Table 19, symbol M)
Type: in vivo, velvetleaf (Abutilon theophrasti)
Conditions: amount of applied herbicide 320 g/ha
How it was run: (§1)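 Emulsion of test compound, water-diluted to predetermined amount, sprayed on soil after sowing (seed depth ~1.5 cm, sterilized diluvial soil). Greenhouse, 25–30° C. Effect graded at three weeks post-spray.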

| Structure (SMILES) | M: velvetleaf, herbicidal effect grade |
| --- | --- |
| CCOc1ccc(-c2sc3cc(OC)ccc3c2-c2c(O)c(C)nn(C)c2=O)cc1 [3-072] | 0 (Herbicidal rate of 5% or less (almost no effect)) |
| COc1ccc2c(-c3c(O)c(C)nn(C)c3=O)c(-c3ccc(F)cc3OC)sc2c1 [3-076] | 0 (Herbicidal rate of 5% or less (almost no effect)) |

Tested on: wild oat
Experiment: Test Example 4: herbicidal effect by soil treatment (Table 19, symbol I)
Type: in vivo, wild oat (Avena fatua)
Conditions: amount of applied herbicide 320 g/ha
How it was run: as §1

| Structure (SMILES) | I: wild oat, herbicidal effect grade |
| --- | --- |
| CCOc1ccc(-c2sc3cc(OC)ccc3c2-c2c(O)c(C)nn(C)c2=O)cc1 [3-072] | 0 (Herbicidal rate of 5% or less (almost no effect)) |
| COc1ccc2c(-c3c(O)c(C)nn(C)c3=O)c(-c3ccc(F)cc3OC)sc2c1 [3-076] | 3 (Herbicidal rate of 40% or more and less than 70%) |

Tested on: barnyard grass
Experiment: Test Example 5: herbicidal effect by foliage application, plastic box (Table 20, symbol H)
Type: in vivo, barnyard grass (Echinochloa crus-galli)
Conditions: foliage application, 320 g/ha, three weeks after application
How it was run: (§2)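 Post-emergence foliar test in sterilized diluvial soil. Compound applied as water-diluted emulsion at a predetermined rate to 14-day-old plants; evaluation at three weeks.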

| Structure (SMILES) | H: barnyard grass, herbicidal effect grade |
| --- | --- |
| CCOc1ccc(-c2sc3cc(OC)ccc3c2-c2c(O)c(C)nn(C)c2=O)cc1 [3-072] | 3 (Herbicidal rate of 40% or more and less than 70%) |
| COc1ccc2c(-c3c(O)c(C)nn(C)c3=O)c(-c3ccc(F)cc3OC)sc2c1 [3-076] | 3 (Herbicidal rate of 40% or more and less than 70%) |

Tested on: Italian ryegrass
Experiment: Test Example 5: herbicidal effect by foliage application, plastic box (Table 20, symbol K)
Type: in vivo, Italian ryegrass (Lolium multiflorum)
Conditions: foliage application, 320 g/ha, three weeks after application
How it was run: as §2

| Structure (SMILES) | K: Italian ryegrass, herbicidal effect grade |
| --- | --- |
| CCOc1ccc(-c2sc3cc(OC)ccc3c2-c2c(O)c(C)nn(C)c2=O)cc1 [3-072] | 4 (Herbicidal rate of 70% or more and less than 90%) |
| COc1ccc2c(-c3c(O)c(C)nn(C)c3=O)c(-c3ccc(F)cc3OC)sc2c1 [3-076] | 4 (Herbicidal rate of 70% or more and less than 90%) |

Tested on: lambsquarters
Experiment: Test Example 5: herbicidal effect by foliage application, plastic box (Table 20, symbol O)
Type: in vivo, lambsquarters (Chenopodium album)
Conditions: foliage application, 320 g/ha, three weeks after application
How it was run: as §2

| Structure (SMILES) | O: lambsquarters, herbicidal effect grade |
| --- | --- |
| CCOc1ccc(-c2sc3cc(OC)ccc3c2-c2c(O)c(C)nn(C)c2=O)cc1 [3-072] | 5 (Herbicidal rate of 90% or more (almost completely withered)) |
| COc1ccc2c(-c3c(O)c(C)nn(C)c3=O)c(-c3ccc(F)cc3OC)sc2c1 [3-076] | 5 (Herbicidal rate of 90% or more (almost completely withered)) |

Tested on: lambsquarters
Experiment: Test Example 4: herbicidal effect by soil treatment (Table 19, symbol O)
Type: in vivo, lambsquarters (Chenopodium album)
Conditions: amount of applied herbicide 320 g/ha
How it was run: as §1

| Structure (SMILES) | O: lambsquarters, herbicidal effect grade |
| --- | --- |
| CCOc1ccc(-c2sc3cc(OC)ccc3c2-c2c(O)c(C)nn(C)c2=O)cc1 [3-072] | 2 (Herbicidal rate of 20% or more and less than 40%) |
| COc1ccc2c(-c3c(O)c(C)nn(C)c3=O)c(-c3ccc(F)cc3OC)sc2c1 [3-076] | 4 (Herbicidal rate of 70% or more and less than 90%) |

Tested on: late watergrass
Experiment: Test Example 2: herbicidal activity, application during weed generation under submerged conditions (Table 17, symbol A)
Type: in vivo, late watergrass (Echinochloa oryzicola)
Conditions: AAH 320 g/ha; application during weed generation, submerged conditions
How it was run: (§3)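 Wagner pot, alluvial soil, 4 cm flood; mixed sowing of all species; greenhouse 25° C.–30° C. Emulsifiable formulation, water-diluted to predetermined dose, applied to paddy water at 1–2 leaf stage. Effect rated at 3 wk using the earlier test's scoring criteria.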

| Structure (SMILES) | herbicidal effect rating, A: late watergrass |
| --- | --- |
| CCOc1ccc(-c2sc3cc(OC)ccc3c2-c2c(O)c(C)nn(C)c2=O)cc1 [3-072] | 3 (Herbicidal rate of 40% or more and less than 70%) |
| COc1ccc2c(-c3c(O)c(C)nn(C)c3=O)c(-c3ccc(F)cc3OC)sc2c1 [3-076] | 3 (Herbicidal rate of 40% or more and less than 70%) |

Tested on: chickweed
Experiment: Test Example 5: herbicidal effect by foliage application, plastic box (Table 20, symbol P)
Type: in vivo, common chickweed (Stellaria media)
Conditions: foliage application, 320 g/ha, three weeks after application
How it was run: as §2

| Structure (SMILES) | P: chickweed, herbicidal effect grade |
| --- | --- |
| CCOc1ccc(-c2sc3cc(OC)ccc3c2-c2c(O)c(C)nn(C)c2=O)cc1 [3-072] | 5 (Herbicidal rate of 90% or more (almost completely withered)) |
| COc1ccc2c(-c3c(O)c(C)nn(C)c3=O)c(-c3ccc(F)cc3OC)sc2c1 [3-076] | 5 (Herbicidal rate of 90% or more (almost completely withered)) |

Tested on: rice flat sedge
Experiment: Test Example 3: herbicidal effect by foliage application, Wagner pot (Table 18, symbol E)
Type: in vivo, rice flat sedge (Cyperus iria)
Conditions: 320 g/ha
How it was run: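 Plants were sown in alluvial soil held under 0.1–0.5 cm standing water and grown 14 days in a greenhouse at 25–30 °C. An emulsifiable formulation, water-diluted to the set dose, was then sprayed onto the foliage, and effects were scored three weeks later using previously defined criteria.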

| Structure (SMILES) | herbicidal effect on rice flat sedge (E) |
| --- | --- |
| CCOc1ccc(-c2sc3cc(OC)ccc3c2-c2c(O)c(C)nn(C)c2=O)cc1 [3-072] | 4 (Herbicidal rate of 70% or more and less than 90%) |
| COc1ccc2c(-c3c(O)c(C)nn(C)c3=O)c(-c3ccc(F)cc3OC)sc2c1 [3-076] | 5 (Herbicidal rate of 90% or more (almost completely withered)) |

Tested on: oval-leafed pondweed
Experiment: Test Example 1: herbicidal activity, application before weed generation under submerged conditions (Table 16, symbol C)
Type: in vivo, oval-leafed pondweed (Monochoria vaginalis)
Conditions: amount of applied herbicide 320 g/ha
How it was run: (§4)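 Alluvial soil was flooded to 4 cm depth, weed seeds were sown mixed and 2.5-leaf rice seedlings were transplanted. On sowing day, the compound's emulsion, diluted in water to a set dose, was applied to the water surface. Plants grew at 25–30 °C and were scored 0–5 after three weeks.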

| Structure (SMILES) | Herbicidal effect, C: oval-leafed pondweed |
| --- | --- |
| CCOc1ccc(-c2sc3cc(OC)ccc3c2-c2c(O)c(C)nn(C)c2=O)cc1 [3-072] | 4 (Herbicidal rate of 70% or more and less than 90%) |
| COc1ccc2c(-c3c(O)c(C)nn(C)c3=O)c(-c3ccc(F)cc3OC)sc2c1 [3-076] | 5 (Herbicidal rate of 90% or more (almost completely withered)) |

Tested on: windgrass
Experiment: Test Example 5: herbicidal effect by foliage application, plastic box (Table 20, symbol L)
Type: in vivo, windgrass (Apera spica-venti)
Conditions: foliage application, 320 g/ha, three weeks after application
How it was run: as §2

| Structure (SMILES) | L: windgrass, herbicidal effect grade |
| --- | --- |
| CCOc1ccc(-c2sc3cc(OC)ccc3c2-c2c(O)c(C)nn(C)c2=O)cc1 [3-072] | 0 (Herbicidal rate of 5% or less (almost no effect)) |
| COc1ccc2c(-c3c(O)c(C)nn(C)c3=O)c(-c3ccc(F)cc3OC)sc2c1 [3-076] | 5 (Herbicidal rate of 90% or more (almost completely withered)) |

Tested on: velvetleaf
Experiment: Test Example 5: herbicidal effect by foliage application, plastic box (Table 20, symbol M)
Type: in vivo, velvetleaf (Abutilon theophrasti)
Conditions: foliage application, 320 g/ha, three weeks after application
How it was run: as §2

| Structure (SMILES) | M: velvetleaf, herbicidal effect grade |
| --- | --- |
| CCOc1ccc(-c2sc3cc(OC)ccc3c2-c2c(O)c(C)nn(C)c2=O)cc1 [3-072] | 3 (Herbicidal rate of 40% or more and less than 70%) |
| COc1ccc2c(-c3c(O)c(C)nn(C)c3=O)c(-c3ccc(F)cc3OC)sc2c1 [3-076] | 3 (Herbicidal rate of 40% or more and less than 70%) |

Tested on: wild oat
Experiment: Test Example 5: herbicidal effect by foliage application, plastic box (Table 20, symbol I)
Type: in vivo, wild oat (Avena fatua)
Conditions: foliage application, 320 g/ha, three weeks after application
How it was run: as §2

| Structure (SMILES) | I: wild oat, herbicidal effect grade |
| --- | --- |
| CCOc1ccc(-c2sc3cc(OC)ccc3c2-c2c(O)c(C)nn(C)c2=O)cc1 [3-072] | 0 (Herbicidal rate of 5% or less (almost no effect)) |
| COc1ccc2c(-c3c(O)c(C)nn(C)c3=O)c(-c3ccc(F)cc3OC)sc2c1 [3-076] | 4 (Herbicidal rate of 70% or more and less than 90%) |

Tested on: Japanese bulrush
Experiment: Test Example 2: herbicidal activity, application during weed generation under submerged conditions (Table 17, symbol B)
Type: in vivo, Japanese bulrush (Schoenoplectus juncoides)
Conditions: AAH 320 g/ha; application during weed generation, submerged conditions
How it was run: as §3

| Structure (SMILES) | herbicidal effect rating, B: Japanese bulrush |
| --- | --- |
| CCOc1ccc(-c2sc3cc(OC)ccc3c2-c2c(O)c(C)nn(C)c2=O)cc1 [3-072] | 2 (Herbicidal rate of 20% or more and less than 40%) |
| COc1ccc2c(-c3c(O)c(C)nn(C)c3=O)c(-c3ccc(F)cc3OC)sc2c1 [3-076] | 4 (Herbicidal rate of 70% or more and less than 90%) |

Tested on: Italian ryegrass
Experiment: Test Example 4: herbicidal effect by soil treatment (Table 19, symbol K)
Type: in vivo, Italian ryegrass (Lolium multiflorum)
Conditions: amount of applied herbicide 320 g/ha
How it was run: as §1

| Structure (SMILES) | K: Italian ryegrass, herbicidal effect grade |
| --- | --- |
| CCOc1ccc(-c2sc3cc(OC)ccc3c2-c2c(O)c(C)nn(C)c2=O)cc1 [3-072] | 0 (Herbicidal rate of 5% or less (almost no effect)) |
| COc1ccc2c(-c3c(O)c(C)nn(C)c3=O)c(-c3ccc(F)cc3OC)sc2c1 [3-076] | 4 (Herbicidal rate of 70% or more and less than 90%) |

Tested on: persian speedwell
Experiment: Test Example 4: herbicidal effect by soil treatment (Table 19, symbol R)
Type: in vivo, Persian speedwell (Veronica persica)
Conditions: amount of applied herbicide 320 g/ha
How it was run: as §1

| Structure (SMILES) | R: persian speedwell, herbicidal effect grade |
| --- | --- |
| CCOc1ccc(-c2sc3cc(OC)ccc3c2-c2c(O)c(C)nn(C)c2=O)cc1 [3-072] | 5 (Herbicidal rate of 90% or more (almost completely withered)) |
| COc1ccc2c(-c3c(O)c(C)nn(C)c3=O)c(-c3ccc(F)cc3OC)sc2c1 [3-076] | 5 (Herbicidal rate of 90% or more (almost completely withered)) |

Tested on: Japanese bulrush
Experiment: Test Example 1: herbicidal activity, application before weed generation under submerged conditions (Table 16, symbol B)
Type: in vivo, Japanese bulrush (Schoenoplectus juncoides)
Conditions: amount of applied herbicide 320 g/ha
How it was run: as §4

| Structure (SMILES) | Herbicidal effect, B: Japanese bulrush |
| --- | --- |
| CCOc1ccc(-c2sc3cc(OC)ccc3c2-c2c(O)c(C)nn(C)c2=O)cc1 [3-072] | 5 (Herbicidal rate of 90% or more (almost completely withered)) |
| COc1ccc2c(-c3c(O)c(C)nn(C)c3=O)c(-c3ccc(F)cc3OC)sc2c1 [3-076] | 5 (Herbicidal rate of 90% or more (almost completely withered)) |
